For the experiment, the target named is T1, RORC2 ligand binding domain (6-His-RORC2 LBD) (Homo sapiens, UniProt P51449).
T1 construct: made in house; host or cells: E. coli
T1 sequence (P51449 269-508 limits assumed): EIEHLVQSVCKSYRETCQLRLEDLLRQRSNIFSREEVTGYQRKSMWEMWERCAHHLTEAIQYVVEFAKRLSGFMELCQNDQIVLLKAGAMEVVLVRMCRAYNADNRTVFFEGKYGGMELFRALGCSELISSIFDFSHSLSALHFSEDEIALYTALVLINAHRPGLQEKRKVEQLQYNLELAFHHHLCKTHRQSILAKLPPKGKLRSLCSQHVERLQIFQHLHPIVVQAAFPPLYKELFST
The experiment is described as follows: Co-activator recruitment by TR-FRET (RORC2 FRET). Type of experiment: biochemical. As to conditions: 6.3 nM RORC2 LBD, 200 nM SRC1-2 coactivator peptide, 3 hours room temperature. The text has this:
The activity of compound of the invention can be determined by a co-activator recruitment by TR-FRET (time-resolved fluorescence resonance energy transfer) assay. […] Due to the long lasting fluorescence emission of Europium, the non-specific, short-lived fluorescence is time-resolved (TR) from the fluorescence of interest. Inhibitors of the interaction of receptor and coactivator peptide are detected by a decrease in TR-FRET signal.
Specifically, in one embodiment the aforementioned assay was performed as outlined below. The assay was carried out in black polystyrene, 384-well plates in a total assay volume of 50.5 μL. The assay buffer contained 50 mM TRIS-HCL pH 7.5, 1 mM NaCl, 2 mM MgCl2, 0.5 mg/mL bovine serum albumin, and 5 mM dithiothreitol.
`Cn1cc(C2CCN(C(=O)C3CCCC3)CC2)c2cc(NS(=O)(=O)c3cccc(C#N)c3)ccc21` [Example 67, 3-cyano-N-{3-[1-(cyclopentylcarbonyl)piperidin-4-yl]-1-methyl-1H-indol-5-yl}benzenesulfonamide] came in with an IC50 of 0.0114 µM.

As to `Cn1cc(C2CCN(C(=O)C3CCCC3)CC2)c2cc(NS(=O)(=O)c3ccccc3)ccc21` [Example 68, N-{3-[1-(cyclopentylcarbonyl)piperidin-4-yl]-1-methyl-1H-indol-5-yl}benzenesulfonamide], the half-maximal inhibitory concentration (IC50) was 0.0065 µM.

`Cn1cnc(S(=O)(=O)Nc2ccc3c(c2)c(C2CCN(C(=O)C4CCCC4)CC2)cn3C)c1` [Example 69, N-{3-[1-(cyclopentylcarbonyl)piperidin-4-yl]-1-methyl-1H-indol-5-yl}-1-methyl-1H-imidazole-4-sulfonamide] displayed a half-inhibitory concentration (IC50) of 0.27 µM. This IC50 lies about 42-fold higher than the previous one.

For `Cn1cc(C2CCN(C(=O)C3CCCC3)CC2)c2cc(NS(=O)(=O)C3CCCCC3)ccc21` [Example 70, N-{3-[1-(cyclopentylcarbonyl)piperidin-4-yl]-1-methyl-1H-indol-5-yl}cyclohexanesulfonamide], the half-inhibitory concentration (IC50) is 0.0072 µM.

`Cn1cc(C2CCN(C(=O)C3CCCC3)CC2)c2cc(NS(=O)(=O)c3ccc(C#N)cc3)ccc21` [Example 71, 4-cyano-N-{3-[1-(cyclopentylcarbonyl)piperidin-4-yl]-1-methyl-1H-indol-5-yl}benzenesulfonamide] returned an IC50 of 0.0239 µM.

The molecule `Cn1cc(C2CCN(C(=O)C3CCCC3)CC2)c2cc(NS(=O)(=O)C3CC3)ccc21` [Example 72, N-{3-[1-(cyclopentylcarbonyl)piperidin-4-yl]-1-methyl-1H-indol-5-yl}cyclopropanesulfonamide] registered a half-inhibitory concentration (IC50) of 0.128 µM. Compared with the last molecule, the IC50 is about 5.4-fold higher.

On to `CCCS(=O)(=O)Nc1ccc2c(c1)c(C1CCN(C(=O)C3CCCC3)CC1)cn2C` [Example 73, N-{3-[1-(cyclopentylcarbonyl)piperidin-4-yl]-1-methyl-1H-indol-5-yl}propane-1-sulfonamide], for which the IC50 was found to be 0.0677 µM. This IC50 is about 1.9-fold lower than that of the molecule before.

As to `COCCCS(=O)(=O)Nc1ccc2c(c1)c(C1CCN(C(=O)C3CCCC3)CC1)cn2C` [Example 74, N-{3-[1-(cyclopentylcarbonyl)piperidin-4-yl]-1-methyl-1H-indol-5-yl}-3-methoxypropane-1-sulfonamide], the IC50 amounted to 0.053 µM. This IC50 and that of the molecule before are within 1.5-fold of each other.

In turn, `COc1ccc(S(=O)(=O)Nc2ccc3c(c2)c(C2CCN(C(=O)C4CCCC4)CC2)cn3C)cc1` [Example 75] yielded an IC50 of 0.0147 µM.

With `Cn1cc(C2CCN(C(=O)C3CCCC3)CC2)c2cc(NS(=O)(=O)c3cccnc3)ccc21` [Example 76, N-{3-[1-(cyclopentylcarbonyl)piperidin-4-yl]-1-methyl-1H-indol-5-yl}pyridine-3-sulfonamide], the IC50 was determined as 0.0229 µM.

For the molecule `Cn1cc(C2CCN(C(=O)C3CCCC3)CC2)c2cc(NS(=O)(=O)Cc3ccccc3)ccc21` [Example 77, N-{3-[1-(cyclopentylcarbonyl)piperidin-4-yl]-1-methyl-1H-indol-5-yl}-1-phenylmethanesulfonamide], the IC50 was found to be 0.0505 µM.

Turning to `Cn1cc(C2CCN(C(=O)C3CCCC3)C2)c2cc(NC(=O)c3cccc(C#N)c3)ccc21` (centres unmarked) [Example 79, 3-cyano-N-(3-(1-(cyclopentylcarbonyl)pyrrolidin-3-yl)-1-methyl-1H-indol-5-yl)benzamide], the IC50 was 0.199 µM. This IC50 lies about 3.9-fold higher than the previous one.

`CC(C)c1cnc(N2CCC(c3cn(C)c4ccc(NC(=O)c5cccc(C#N)c5)cc34)CC2)nc1` [Example 80] registered a half-maximal inhibitory concentration (IC50) of 0.259 µM. This IC50 and that of the molecule before are within 1.5-fold of each other.

As to `Cc1cnc(N2CCC(c3cn(C)c4ccc(NC(=O)c5cccc(C#N)c5)cc34)CC2)nc1` [Example 81, 3-cyano-N-(1-methyl-3-(1-(5-methylpyrimidin-2-yl)piperidin-4-yl)-1H-indol-5-yl)benzamide], the half-maximal inhibitory concentration (IC50) was 0.335 µM.

Consider `CC(C)c1cnc(N2CCC(c3cn(C)c4ccc(NC(=O)c5cccc(C#N)c5)cc34)CC2)nc1` [Example 82, 3-cyano-N-(3-[1-(5-isopropylpyrimidin-2-yl)piperidin-4-yl]-1-methyl-1H-indol-5-yl)benzamide], for which the IC50 was determined as 3.96 µM.

For `N#Cc1cccc(C(=O)Nc2ccc3onc(C4CCN(C(=O)C5CCCC5)CC4)c3c2)c1` [Example 83, 3-cyano-N-(3-(1-(cyclopentanecarbonyl)piperidin-4-yl)benzo[d]isoxazol-5-yl)benzamide], the 50% inhibitory concentration (IC50) was 0.0234 µM. Compared with the last molecule, the IC50 is about 170-fold lower.

The molecule `N#Cc1cccc(C(=O)Nc2ccc3cnn(C4CCN(C(=O)C5CCCC5)CC4)c3c2)c1` [Example 84, 3-cyano-N-(1-(1-(cyclopentanecarbonyl)piperidin-4-yl)-1H-indazol-6-yl)benzamide] displayed an IC50 of 0.214 µM. Against the preceding molecule, the IC50 is about 9.1-fold higher.

Take `N#Cc1cccc(C(=O)Nc2ccc3[nH]cc(C4CCN(C(=O)NC5CCCC5)CC4)c3c2)c1` [Example 85, 4-(5-(3-cyanobenzamido)-1H-indol-3-yl)-N-cyclopentylpiperidine-1-carboxamide]: the IC50 amounted to 0.859 µM.

In the case of `N#Cc1cccc(C(=O)Nc2ccc3[nH]cc(C4CCN(S(=O)(=O)C5CCCC5)CC4)c3c2)c1` [Example 86, 3-cyano-N-(3-(1-(cyclopentylsulfonyl)piperidin-4-yl)-1H-indol-5-yl)benzamide], the IC50 was above 20 µM.

Regarding `N#Cc1cccc(C(=O)Nc2ccc3[nH]cc(C4CCN(CC5CCCC5)CC4)c3c2)c1` [Example 87, 3-cyano-N-(3-(1-(cyclopentylmethyl)piperidin-4-yl)-1H-indol-5-yl)benzamide], the IC50 was above 20 µM.

As for `Cc1c(NC(=O)c2cccc(C#N)c2)ccc2c1c(C1CCN(C(=O)C[C@@H](O)C(F)(F)F)CC1)cn2C` [Example 89, (R)-3-cyano-N-(1,4-dimethyl-3-(1-(4,4,4-trifluoro-3-hydroxybutanoyl)-piperidin-4-yl)-1H-indol-5-yl)benzamide], the 50% inhibitory concentration (IC50) was 0.0142 µM. This lies in the double-digit nanomolar range.

The molecule `Cn1cc(C2CCN(C(=O)C[C@@H](O)C(F)(F)F)CC2)c2cc(NC(=O)c3cccc(C#N)c3)ccc21` [Example 90, (R)-3-cyano-N-(1-methyl-3-(1-(4,4,4-trifluoro-3-hydroxybutanoyl)piperidin-4-yl)-1H-indol-5-yl)benzamide] registered a concentration for half-maximal inhibition (IC50) of 0.0139 µM.

For the molecule `Cn1cc(C2CCN(C(=O)C[C@@H](O)C(F)(F)F)CC2)c2cc(NS(=O)(=O)c3ccc(F)cc3)ccc21` [Example 91, (R)-4-fluoro-N-(1-methyl-3-(1-(4,4,4-trifluoro-3-hydroxybutanoyl)piperidin-4-yl)-1H-indol-5-yl)benzenesulfonamide], the half-inhibitory concentration (IC50) worked out at 0.0098 µM.

For `CC(C)C(=O)N1CCC(c2cn(C)c3ccc(NS(=O)(=O)c4ccc(F)cc4)cc23)CC1` [Example 92, 4-fluoro-N-(3-(1-isobutyrylpiperidin-4-yl)-1-methyl-1H-indol-5-yl)benzenesulfonamide], the IC50 is 0.0105 µM.

`CC1CCN(S(=O)(=O)Nc2ccc3c(c2)c(C2CCN(C(=O)C4CCCC4)CC2)cn3C)CC1` [Example 93, N-(3-(1-(cyclopentanecarbonyl)piperidin-4-yl)-1-methyl-1H-indol-5-yl)-4-methylpiperidine-1-sulfonamide] yielded an IC50 of 0.0049 µM.

Regarding `Cc1c(NC(=O)c2cccc(C#N)c2)cnc2c1c(C1CCN(C(=O)C[C@@H](O)C(F)(F)F)CC1)cn2C` [Example 95, (R)-3-Cyano-N-(1,4-dimethyl-3-(1-(4,4,4-trifluoro-3-hydroxybutanoyl)piperidin-4-yl)-1H-pyrrolo[2,3-b]pyridin-5-yl)benzamide], the half-inhibitory concentration (IC50) came out at 0.0468 µM.

The record behind these values is patent US20160046597A1, “RORC2 INHIBITORS AND METHODS OF USE THEREOF” (PFIZER INC., priority 2013, published 2016).
